Results as given in PubChem BioAssay AID1963840 (Molecular Pharmacology Branch, DTP, NCI, 2024).

Tested on: 695427-040-R-J1-PDC complex spheroid viability
Assay: Anticancer human tumor 695427-040-R-J1-PDC patient-derived colon adenocarcinoma cell line growth inhibition [POLQ]
Settings: for IC50: curve of first compound; for viability, T/C: stronger effect = lower value; active means viability on the fitted dose curve at most 10% of control; inactive means the rest
How it was run: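 Growth inhibition in 3D: complex spheroids (tumor PDC, HUVEC, MSC) treated with POLQ inhibitor combinations; where Cmax unknown, highest tested concentration 10 microM, except SN-38 at 1 microM.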

[1] = second compound 0.0316 µM, first compound 0.0316 µM
[2] = second compound 0.0316 µM, first compound 0.1 µM
[3] = second compound 0.0316 µM, first compound 0.316 µM
[4] = second compound 0.0316 µM, first compound 1 µM
[5] = second compound 0.0316 µM, first compound 3.16 µM
[6] = second compound 0.0316 µM, first compound 10 µM
[7] = second compound 0.1 µM, first compound 0.0316 µM
[8] = second compound 0.1 µM, first compound 0.1 µM
[9] = second compound 0.1 µM, first compound 0.316 µM
[10] = second compound 0.1 µM, first compound 1 µM
[11] = second compound 0.1 µM, first compound 3.16 µM
[12] = second compound 0.1 µM, first compound 10 µM
[13] = second compound 0.316 µM, first compound 0.0316 µM
[14] = second compound 0.316 µM, first compound 0.1 µM
[15] = second compound 0.316 µM, first compound 0.316 µM
[16] = second compound 0.316 µM, first compound 1 µM
[17] = second compound 0.316 µM, first compound 3.16 µM
[18] = second compound 0.316 µM, first compound 10 µM
[19] = second compound 1 µM, first compound 0.0316 µM
[20] = second compound 1 µM, first compound 0.1 µM
[21] = second compound 1 µM, first compound 0.316 µM
[22] = second compound 1 µM, first compound 1 µM
[23] = second compound 1 µM, first compound 3.16 µM
[24] = second compound 1 µM, first compound 10 µM
[25] = second compound 3.16 µM, first compound 0.0316 µM
[26] = second compound 3.16 µM, first compound 0.1 µM
[27] = second compound 3.16 µM, first compound 0.316 µM
[28] = second compound 3.16 µM, first compound 1 µM
[29] = second compound 3.16 µM, first compound 3.16 µM
[30] = second compound 3.16 µM, first compound 10 µM
[31] = second compound 10 µM, first compound 0.0316 µM
[32] = second compound 10 µM, first compound 0.1 µM
[33] = second compound 10 µM, first compound 0.316 µM
[34] = second compound 10 µM, first compound 1 µM
[35] = second compound 10 µM, first compound 3.16 µM
[36] = second compound 10 µM, first compound 10 µM
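Further: spheroids exposed to compounds for seven days.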
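Wherever viability, T/C is given: 100% = DMSO vehicle control viability.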

C=CC(=O)N1CCN(c2nc(=O)n(-c3c(C)ccnc3C(C)C)c3nc(-c4c(O)cccc4F)c(F)cc23)C(C)C1 (stereo not given) + Nc1ccc(C#CCN(C(=O)Cc2ncc(C(F)(F)F)cc2C(F)(F)F)c2ccc(F)cc2)nn1
> 10 µM: IC50 (second compound 0.0316 µM) | IC50 (second compound 0.1 µM) | IC50 (second compound 0.316 µM) | IC50 (second compound 1 µM) | IC50 (second compound 3.16 µM) | IC50 (second compound 10 µM)
inactive: viability, T/C [1] 108% | viability, T/C [2] 104% | viability, T/C [3] 110% | viability, T/C [4] 111% | viability, T/C [5] 110% | viability, T/C [6] 104% | viability, T/C [7] 108% | viability, T/C [8] 110% | viability, T/C [9] 107% | viability, T/C [10] 92.2% | viability, T/C [11] 104% | viability, T/C [12] 113% | viability, T/C [13] 116% | viability, T/C [14] 107% | viability, T/C [15] 102% | viability, T/C [16] 105% | viability, T/C [17] 120% | viability, T/C [18] 95.3% | viability, T/C [19] 102% | viability, T/C [20] 95.2% | viability, T/C [21] 97.9% | viability, T/C [22] 101% | viability, T/C [23] 107% | viability, T/C [24] 96.9% | viability, T/C [25] 105% | viability, T/C [26] 101% | viability, T/C [27] 104% | viability, T/C [28] 97.3% | viability, T/C [29] 107% | viability, T/C [30] 98.3% | viability, T/C [31] 97.2% | viability, T/C [32] 84.4% | viability, T/C [33] 102% | viability, T/C [34] 96.3% | viability, T/C [35] 121% | viability, T/C [36] 97.6%

CC(C)n1c(=O)n(C)c2cnc3cc(F)c(-c4ccc(OCCCN5CCCCC5)nc4)cc3c21 + Nc1ccc(C#CCN(C(=O)Cc2ncc(C(F)(F)F)cc2C(F)(F)F)c2ccc(F)cc2)nn1
inactive: viability, T/C [1] 103% | viability, T/C [2] 105% | viability, T/C [3] 112% | viability, T/C [4] 110% | viability, T/C [5] 100% | viability, T/C [6] 91.4% | viability, T/C [7] 106% | viability, T/C [8] 109% | viability, T/C [9] 115% | viability, T/C [10] 107% | viability, T/C [11] 108% | viability, T/C [12] 81.9% | viability, T/C [13] 114% | viability, T/C [14] 112% | viability, T/C [15] 103% | viability, T/C [16] 110% | viability, T/C [17] 106% | viability, T/C [18] 91.8% | viability, T/C [19] 102% | viability, T/C [20] 98.9% | viability, T/C [21] 116% | viability, T/C [22] 106% | viability, T/C [23] 115% | viability, T/C [24] 82.4% | viability, T/C [25] 107% | viability, T/C [26] 100% | viability, T/C [27] 105% | viability, T/C [28] 104% | viability, T/C [29] 96% | viability, T/C [30] 79.6% | viability, T/C [31] 99.7% | viability, T/C [32] 90.1% | viability, T/C [33] 101% | viability, T/C [34] 108% | viability, T/C [35] 95.4% | viability, T/C [36] 88%
> 10 µM: IC50 (second compound 0.0316 µM) | IC50 (second compound 0.1 µM) | IC50 (second compound 0.316 µM) | IC50 (second compound 1 µM) | IC50 (second compound 3.16 µM) | IC50 (second compound 10 µM)

CC1COCCN1c1cc(-c2ccnn2C)c2ccnc(-c3ccn[nH]3)c2n1 (stereo not given) + Nc1ccc(C#CCN(C(=O)Cc2ncc(C(F)(F)F)cc2C(F)(F)F)c2ccc(F)cc2)nn1
inactive: viability, T/C [1] 92.9% | viability, T/C [2] 91.8% | viability, T/C [3] 72.9% | viability, T/C [4] 66.8% | viability, T/C [5] 61.6% | viability, T/C [6] 56.3% | viability, T/C [7] 117% | viability, T/C [8] 89.1% | viability, T/C [9] 74.3% | viability, T/C [10] 66.3% | viability, T/C [11] 61.7% | viability, T/C [12] 56.2% | viability, T/C [13] 105% | viability, T/C [14] 92.7% | viability, T/C [15] 71% | viability, T/C [16] 62.5% | viability, T/C [17] 65% | viability, T/C [18] 56.9% | viability, T/C [19] 108% | viability, T/C [20] 83.5% | viability, T/C [21] 73.6% | viability, T/C [22] 65.6% | viability, T/C [23] 59.7% | viability, T/C [24] 51.4% | viability, T/C [25] 102% | viability, T/C [26] 84.3% | viability, T/C [27] 70.3% | viability, T/C [28] 61.1% | viability, T/C [29] 61.8% | viability, T/C [30] 52.2% | viability, T/C [31] 92% | viability, T/C [32] 80.3% | viability, T/C [33] 64.2% | viability, T/C [34] 57.8% | viability, T/C [35] 58.5% | viability, T/C [36] 58%
> 10 µM: IC50 (second compound 0.0316 µM) | IC50 (second compound 0.1 µM) | IC50 (second compound 0.316 µM) | IC50 (second compound 1 µM) | IC50 (second compound 3.16 µM) | IC50 (second compound 10 µM)

CC1COCCN1c1cc(C2(S(C)(=N)=O)CC2)nc(-c2ccnc3[nH]ccc23)n1 (stereo not given) + Nc1ccc(C#CCN(C(=O)Cc2ncc(C(F)(F)F)cc2C(F)(F)F)c2ccc(F)cc2)nn1
inactive: viability, T/C [1] 110% | viability, T/C [2] 103% | viability, T/C [3] 99.4% | viability, T/C [4] 106% | viability, T/C [5] 99.6% | viability, T/C [6] 96.2% | viability, T/C [7] 108% | viability, T/C [8] 100% | viability, T/C [9] 97.4% | viability, T/C [10] 98.1% | viability, T/C [11] 112% | viability, T/C [12] 94.5% | viability, T/C [13] 96.8% | viability, T/C [14] 104% | viability, T/C [15] 93.9% | viability, T/C [16] 104% | viability, T/C [17] 99.9% | viability, T/C [18] 82.2% | viability, T/C [19] 102% | viability, T/C [20] 101% | viability, T/C [21] 102% | viability, T/C [22] 102% | viability, T/C [23] 102% | viability, T/C [24] 86.6% | viability, T/C [25] 100% | viability, T/C [26] 95.1% | viability, T/C [27] 99.3% | viability, T/C [28] 101% | viability, T/C [29] 95.4% | viability, T/C [30] 88.2% | viability, T/C [31] 104% | viability, T/C [32] 97.9% | viability, T/C [33] 95% | viability, T/C [34] 96.7% | viability, T/C [35] 91.6% | viability, T/C [36] 74.9%
> 10 µM: IC50 (second compound 0.0316 µM) | IC50 (second compound 0.1 µM) | IC50 (second compound 0.316 µM) | IC50 (second compound 1 µM) | IC50 (second compound 3.16 µM) | IC50 (second compound 10 µM)

COc1ccc([C@@H](O)c2cc(-c3ncnc4cc(N5CCOCC5)ccc34)c(F)cc2Cl)nn1 + Nc1ccc(C#CCN(C(=O)Cc2ncc(C(F)(F)F)cc2C(F)(F)F)c2ccc(F)cc2)nn1
> 10 µM: IC50 (second compound 0.0316 µM) | IC50 (second compound 0.1 µM) | IC50 (second compound 0.316 µM) | IC50 (second compound 1 µM) | IC50 (second compound 3.16 µM) | IC50 (second compound 10 µM)
inactive: viability, T/C [1] 101% | viability, T/C [2] 91.6% | viability, T/C [3] 99.2% | viability, T/C [4] 89.7% | viability, T/C [5] 84.3% | viability, T/C [6] 60.7% | viability, T/C [7] 105% | viability, T/C [8] 108% | viability, T/C [9] 98.8% | viability, T/C [10] 89.3% | viability, T/C [11] 86.5% | viability, T/C [12] 54% | viability, T/C [13] 108% | viability, T/C [14] 106% | viability, T/C [15] 99.7% | viability, T/C [16] 89.6% | viability, T/C [17] 89.9% | viability, T/C [18] 63.9% | viability, T/C [19] 108% | viability, T/C [20] 97.5% | viability, T/C [21] 91.1% | viability, T/C [22] 91% | viability, T/C [23] 86.2% | viability, T/C [24] 52.2% | viability, T/C [25] 101% | viability, T/C [26] 97.4% | viability, T/C [27] 99.2% | viability, T/C [28] 90.9% | viability, T/C [29] 78.3% | viability, T/C [30] 56.2% | viability, T/C [31] 101% | viability, T/C [32] 92.5% | viability, T/C [33] 90.1% | viability, T/C [34] 89.8% | viability, T/C [35] 82.1% | viability, T/C [36] 55.1%
